System: MV-4-11 cells
Test: Gene expression microarray analysis (Affymetrix PrimeView) and GSEA
Format: cell-based, human
Parameters: RFU PODN (11730768_x_at) / Fold change /veh PODN (11730768_x_at) / RFU LINC00158 (11744669_a_at) / Fold change /veh LINC00158 (11744669_a_at) / RFU DUSP10 (11751237_a_at) / Fold change /veh DUSP10 (11751237_a_at) / RFU ID3 (11757404_x_at) / Fold change /veh ID3 (11757404_x_at) / RFU PLEKHG5 (11737974_s_at) / Fold change /veh PLEKHG5 (11737974_s_at) / RFU LRRC4B (11730491_at) / Fold change /veh LRRC4B (11730491_at) / RFU GIMAP4 (11747438_a_at) / Fold change /veh GIMAP4 (11747438_a_at) / RFU KRT8 (11758183_x_at) / Fold change /veh KRT8 (11758183_x_at) / RFU CNN1 (11734310_a_at) / Fold change /veh CNN1 (11734310_a_at) / RFU VPS37D (11726825_at) / Fold change /veh VPS37D (11726825_at) / RFU C10orf10 (11716522_x_at) / Fold change /veh C10orf10 (11716522_x_at) / RFU KIR2DL2 /// KIR2DL4 /// KIR2DL5A /// KIR2DL5B /// KIR2DS1 /// KIR2DS2 /// KIR2DS3 /// KIR2DS4 /// KIR3DL3 /// KIR3DL3 /// KIR3DS1 (11738374_at) / Fold change /veh KIR2DL2 /// KIR2DL4 /// KIR2DL5A /// KIR2DL5B /// KIR2DS1 /// KIR2DS2 /// KIR2DS3 /// KIR2DS4 /// KIR3DL3 /// KIR3DL3 /// KIR3DS1 (11738374_at) / RFU C1QL1 (11718748_at) / Fold change /veh C1QL1 (11718748_at) / RFU TMPRSS4 (11747572_a_at) / Fold change /veh TMPRSS4 (11747572_a_at) / RFU HAMP (11756126_x_at) / Fold change /veh HAMP (11756126_x_at) / RFU RNFT2 (11725882_a_at) / Fold change /veh RNFT2 (11725882_a_at) / RFU NR4A2 (11747474_a_at) / Fold change /veh NR4A2 (11747474_a_at) / RFU ABCC12 (11746883_a_at) / Fold change /veh ABCC12 (11746883_a_at) / RFU TMEM136 (11760407_x_at) / Fold change /veh TMEM136 (11760407_x_at) / RFU CLDN22 /// WWC2 (11732394_at) / Fold change /veh CLDN22 /// WWC2 (11732394_at) / RFU HLA-DPB1 (11760878_x_at) / Fold change /veh HLA-DPB1 (11760878_x_at) / RFU SPINT1 (11716480_a_at) / Fold change /veh SPINT1 (11716480_a_at) / RFU GAP43 (11754022_s_at) / Fold change /veh GAP43 (11754022_s_at) / RFU A4GNT (11735810_at) / Fold change /veh A4GNT (11735810_at) / RFU PRB3 (11715151_x_at) / Fold change /veh PRB3 (11715151_x_at) / RFU TUBB4B (11761932_at) / Fold change /veh TUBB4B (11761932_at) / RFU CAPN14 (11732068_a_at) / Fold change /veh CAPN14 (11732068_a_at) / RFU TMCC2 (11721928_a_at) / Fold change /veh TMCC2 (11721928_a_at) / RFU IRGQ (11745062_a_at) / Fold change /veh IRGQ (11745062_a_at) / RFU FAM174B (11720279_a_at) / Fold change /veh FAM174B (11720279_a_at) / RFU TMPRSS4 (11748680_a_at) / Fold change /veh TMPRSS4 (11748680_a_at) / RFU FAM212B (11763350_a_at) / Fold change /veh FAM212B (11763350_a_at) / RFU PLEKHG5 (11743358_a_at) / Fold change /veh PLEKHG5 (11743358_a_at) / RFU ZSCAN30 (11745921_a_at) / Fold change /veh ZSCAN30 (11745921_a_at) / RFU CMKLR1 (11741424_a_at) / Fold change /veh CMKLR1 (11741424_a_at) / RFU LOC101060620 /// MAPK8IP1 (11723275_at) / Fold change /veh LOC101060620 /// MAPK8IP1 (11723275_at) / RFU SPTSSB (11747773_x_at) / Fold change /veh SPTSSB (11747773_x_at) / RFU PRSS12 (11739890_at) / Fold change /veh PRSS12 (11739890_at) / RFU BIN1 (11741810_x_at) / Fold change /veh BIN1 (11741810_x_at) / RFU WNT11 (11732464_a_at) / Fold change /veh WNT11 (11732464_a_at) / RFU C10orf10 (11716521_a_at) / Fold change /veh C10orf10 (11716521_a_at) / RFU C5orf56 (11738089_at) / Fold change /veh C5orf56 (11738089_at) / RFU CYB561 (11721691_x_at) / Fold change /veh CYB561 (11721691_x_at) / RFU ANKRD19P (11752326_a_at) / Fold change /veh ANKRD19P (11752326_a_at) / RFU OR2T12 /// OR2T33 /// OR2T8 (11738714_s_at) / Fold change /veh OR2T12 /// OR2T33 /// OR2T8 (11738714_s_at) / RFU VCAN (11748164_a_at) / Fold change /veh VCAN (11748164_a_at) / RFU JSRP1 (11732532_at) / Fold change /veh JSRP1 (11732532_at) / RFU KRTAP10-11 (11738290_x_at) / Fold change /veh KRTAP10-11 (11738290_x_at) / RFU MYO3A (11730013_a_at) / Fold change /veh MYO3A (11730013_a_at) / RFU EBF3 (11725865_a_at) / Fold change /veh EBF3 (11725865_a_at) / RFU CAMK2N1 (11719241_x_at) / Fold change /veh CAMK2N1 (11719241_x_at) / RFU C5orf56 (11738088_a_at) / Fold change /veh C5orf56 (11738088_a_at) / RFU OLFML3 (11715873_a_at) / Fold change /veh OLFML3 (11715873_a_at) / RFU LOC100653217 /// NTM (11731650_a_at) / Fold change /veh LOC100653217 /// NTM (11731650_a_at) / RFU MAPK11 (11762145_a_at) / Fold change /veh MAPK11 (11762145_a_at) / RFU FIZ1 (11724087_x_at) / Fold change /veh FIZ1 (11724087_x_at) / RFU OASL (11726364_x_at) / Fold change /veh OASL (11726364_x_at) / RFU SOX15 (11748057_x_at) / Fold change /veh SOX15 (11748057_x_at) / RFU CD79A (11719716_a_at) / Fold change /veh CD79A (11719716_a_at) / RFU HIST1H1D (11736915_at) / Fold change /veh HIST1H1D (11736915_at) / RFU CASKIN2 (11723855_a_at) / Fold change /veh CASKIN2 (11723855_a_at) / RFU LOC730098 (11760151_x_at) / Fold change /veh LOC730098 (11760151_x_at) / RFU OR4N2 (11742367_at) / Fold change /veh OR4N2 (11742367_at) / RFU PRRT2 (11749266_a_at) / Fold change /veh PRRT2 (11749266_a_at) / RFU SNX32 (11753110_a_at) / Fold change /veh SNX32 (11753110_a_at) / RFU CDHR5 (11726645_a_at) / Fold change /veh CDHR5 (11726645_a_at) / RFU RCAN1 (11760418_a_at) / Fold change /veh RCAN1 (11760418_a_at) / RFU FAM167A (11723789_a_at) / Fold change /veh FAM167A (11723789_a_at) / RFU FAM26E (11764081_at) / Fold change /veh FAM26E (11764081_at) / RFU ISYNA1 (11749810_s_at) / Fold change /veh ISYNA1 (11749810_s_at) / RFU ACY1 (11761880_at) / Fold change /veh ACY1 (11761880_at) / RFU 11764098_at / Fold change /veh 11764098_at / RFU SAMD14 (11745864_x_at) / Fold change /veh SAMD14 (11745864_x_at) / RFU NPB (11741838_a_at) / Fold change /veh NPB (11741838_a_at) / RFU TMPRSS6 (11731388_a_at) / Fold change /veh TMPRSS6 (11731388_a_at) / RFU KRTAP10-2 (11738614_at) / Fold change /veh KRTAP10-2 (11738614_at) / RFU ARHGAP8 /// PRR5-ARHGAP8 (11727945_x_at) / Fold change /veh ARHGAP8 /// PRR5-ARHGAP8 (11727945_x_at) / RFU KRTAP5-7 /// NADSYN1 (11734609_at) / Fold change /veh KRTAP5-7 /// NADSYN1 (11734609_at) / RFU RASL12 (11751679_a_at) / Fold change /veh RASL12 (11751679_a_at) / RFU CDKN2B (11736163_a_at) / Fold change /veh CDKN2B (11736163_a_at) / RFU PRF1 (11729649_at) / Fold change /veh PRF1 (11729649_at) / RFU, ZNF638 /// ZNF638-IT1 / Fold change vs veh, ZNF638 /// ZNF638-IT1 / RFU, PANK3 / Fold change vs veh, PANK3 / RFU, SH3YL1 / Fold change vs veh, SH3YL1 / RFU, ZEB2 / Fold change vs veh, ZEB2 / RFU, NRIP1 / Fold change vs veh, NRIP1 / RFU, PTTG1IP / Fold change vs veh, PTTG1IP / RFU, CAPN2 / Fold change vs veh, CAPN2 / RFU, MED14 / Fold change vs veh, MED14 / RFU, SNORA58 / Fold change vs veh, SNORA58 / RFU, C1orf63 / Fold change vs veh, C1orf63 / RFU, LRRFIP1 / Fold change vs veh, LRRFIP1 / RFU, NDUFAF7 / Fold change vs veh, NDUFAF7 / RFU, SLC12A2 / Fold change vs veh, SLC12A2 / RFU, IBTK / Fold change vs veh, IBTK / RFU, ESF1 / Fold change vs veh, ESF1 / Fold change vs veh, TMEM50B / RFU, TAOK1 / Fold change vs veh, TAOK1 / RFU, ACBD3 / Fold change vs veh, ACBD3 / RFU, TMA16 / Fold change vs veh, TMA16 / RFU, RWDD3 / Fold change vs veh, RWDD3 / RFU, BCAT1 / Fold change vs veh, BCAT1 / RFU, EDEM3 / Fold change vs veh, EDEM3 / RFU, TMEM33 / Fold change vs veh, TMEM33 / RFU, WDR75 / Fold change vs veh, WDR75 / RFU, AHCTF1 / Fold change vs veh, AHCTF1 / RFU, TFRC / Fold change vs veh, TFRC / RFU, ZDHHC17 / Fold change vs veh, ZDHHC17 / RFU, NOM1 / Fold change vs veh, NOM1 / RFU, ARL8B / Fold change vs veh, ARL8B / RFU, ZBTB11 / Fold change vs veh, ZBTB11 / RFU, TAMM41 / Fold change vs veh, TAMM41 / RFU, KIAA1704 /// LOC100996395 / Fold change vs veh, KIAA1704 /// LOC100996395 / RFU, ING1 / Fold change vs veh, ING1 / RFU, TRMT61B / Fold change vs veh, TRMT61B / RFU, FUBP3 / Fold change vs veh, FUBP3 / RFU, TP53 / Fold change vs veh, TP53 / RFU, TNKS2 / Fold change vs veh, TNKS2 / RFU, ZFP14 / Fold change vs veh, ZFP14 / RFU, ACTR2 / Fold change vs veh, ACTR2 / RFU, PPP3R1 / Fold change vs veh, PPP3R1 / RFU, PIK3R1 / Fold change vs veh, PIK3R1 / RFU, HNRNPA1 / Fold change vs veh, HNRNPA1 / RFU, RNF170 / Fold change vs veh, RNF170 / RFU, ZNF28 / Fold change vs veh, ZNF28 / RFU, RNGTT / Fold change vs veh, RNGTT / RFU, OGT / Fold change vs veh, OGT / RFU, BRD1 / Fold change vs veh, BRD1 / RFU, MARS / Fold change vs veh, MARS / RFU, ZNF655 / Fold change vs veh, ZNF655 / RFU, FAHD1 / Fold change vs veh, FAHD1 / RFU, BDP1 / Fold change vs veh, BDP1 / RFU, LRRCC1 / Fold change vs veh, LRRCC1 / RFU, ARID1A / Fold change vs veh, ARID1A / RFU, ZNF146 / Fold change vs veh, ZNF146 / RFU, ZNF330 / Fold change vs veh, ZNF330 / RFU, GPN3 / Fold change vs veh, GPN3 / RFU, C9orf123 / Fold change vs veh, C9orf123 / RFU, N4BP2L2 / Fold change vs veh, N4BP2L2 / RFU, ARFIP1 / Fold change vs veh, ARFIP1 / RFU, FAM179B / Fold change vs veh, FAM179B / RFU, BCL10 / Fold change vs veh, BCL10 / RFU, UHRF1BP1L / Fold change vs veh, UHRF1BP1L / RFU, BET1 / Fold change vs veh, BET1 / RFU, CNOT2 / Fold change vs veh, CNOT2 / RFU, ZNF268 / Fold change vs veh, ZNF268 / Fold change vs veh, ZNF507 / RFU, DGCR2 / Fold change vs veh, DGCR2 / RFU, WDSUB1 / Fold change vs veh, WDSUB1 / Fold change vs veh, HSP90B1 /// MIR3652 / RFU, ADSS / Fold change vs veh, ADSS / RFU, GK / Fold change vs veh, GK / RFU, ZNF148 / Fold change vs veh, ZNF148 / RFU, TAF9 / Fold change vs veh, TAF9 / RFU, SLC1A5 / Fold change vs veh, SLC1A5 / RFU, SLMO2 / Fold change vs veh, SLMO2 / RFU, ABCC4 / Fold change vs veh, ABCC4 / RFU, LOC101060439 /// RAP1B / Fold change vs veh, LOC101060439 /// RAP1B / RFU, RFX7 / Fold change vs veh, RFX7 / RFU, GTPBP10 / Fold change vs veh, GTPBP10 / RFU, CNEP1R1 / Fold change vs veh, CNEP1R1 / RFU, BIVM-ERCC5 /// ERCC5 / Fold change vs veh, BIVM-ERCC5 /// ERCC5 / RFU, ILF3 / Fold change vs veh, ILF3 / RFU 11762660_at / Fold change /veh 11762660_at / RFU VCAN (11757783_s_at) / Fold change /veh VCAN (11757783_s_at) / RFU DDX43 (11728927_at) / Fold change /veh DDX43 (11728927_at) / RFU KRT8 (11758188_x_at) / Fold change /veh KRT8 (11758188_x_at) / RFU NKD1 (11759106_at) / Fold change /veh NKD1 (11759106_at) / RFU SRD5A1 (11742802_a_at) / Fold change /veh SRD5A1 (11742802_a_at) / RFU TPSAB1 /// TPSB2 (11721975_s_at) / Fold change /veh TPSAB1 /// TPSB2 (11721975_s_at) / RFU GSTM3 (11746129_a_at) / Fold change /veh GSTM3 (11746129_a_at) / RFU IL23R (11737362_x_at) / Fold change /veh IL23R (11737362_x_at) / RFU TMEM51 (11727254_a_at) / Fold change /veh TMEM51 (11727254_a_at) / RFU PIWIL2 (11732686_x_at) / Fold change /veh PIWIL2 (11732686_x_at) / RFU ORM1 (11744905_x_at) / Fold change /veh ORM1 (11744905_x_at) / RFU CCDC152 (11743942_at) / Fold change /veh CCDC152 (11743942_at) / RFU ECM1 (11717891_a_at) / Fold change /veh ECM1 (11717891_a_at) / RFU IL23R (11748794_a_at) / Fold change /veh IL23R (11748794_a_at) / RFU TNFAIP8L3 (11732012_x_at) / Fold change /veh TNFAIP8L3 (11732012_x_at) / RFU MBOAT4 (11741988_at) / Fold change /veh MBOAT4 (11741988_at) / RFU 11764193_at / Fold change /veh 11764193_at / RFU TMEM53 (11763286_at) / Fold change /veh TMEM53 (11763286_at) / RFU MAGEB2 (11727129_at) / Fold change /veh MAGEB2 (11727129_at) / RFU TMEM200A (11744735_a_at) / Fold change /veh TMEM200A (11744735_a_at) / RFU CCDC152 (11751479_a_at) / Fold change /veh CCDC152 (11751479_a_at) / RFU FAM211A (11726209_a_at) / Fold change /veh FAM211A (11726209_a_at) / RFU RGS16 (11746705_a_at) / Fold change /veh RGS16 (11746705_a_at) / RFU VCAN (11755009_s_at) / Fold change /veh VCAN (11755009_s_at) / RFU RHOB (11743442_s_at) / Fold change /veh RHOB (11743442_s_at) / RFU RGS16 (11720943_a_at) / Fold change /veh RGS16 (11720943_a_at) / RFU RGS16 (11720944_at) / Fold change /veh RGS16 (11720944_at) / RFU, VPS4B / Fold change vs veh, VPS4B / RFU, CREB1 / Fold change vs veh, CREB1 / RFU, DNAJC13 / Fold change vs veh, DNAJC13 / RFU, GNAQ / Fold change vs veh, GNAQ / RFU, CDK5R1 / Fold change vs veh, CDK5R1 / RFU, ZRANB3 / Fold change vs veh, ZRANB3 / RFU, CUL4A / Fold change vs veh, CUL4A / RFU, CCNY / Fold change vs veh, CCNY / RFU, UFL1 / Fold change vs veh, UFL1 / RFU, COG3 / Fold change vs veh, COG3 / RFU, DIAPH2 / Fold change vs veh, DIAPH2 / RFU, SKA2 / Fold change vs veh, SKA2 / RFU, AFF3 / Fold change vs veh, AFF3 / RFU, LMF1 / Fold change vs veh, LMF1 / RFU, IPO11 / Fold change vs veh, IPO11 / RFU, DFFB / Fold change vs veh, DFFB / RFU, FOXP1 / Fold change vs veh, FOXP1 / RFU, CARD8 / Fold change vs veh, CARD8 / RFU, STRN3 / Fold change vs veh, STRN3 / RFU, ADK / Fold change vs veh, ADK / RFU, RASSF2 / Fold change vs veh, RASSF2 / RFU, WIPF1 / Fold change vs veh, WIPF1 / RFU, LARP1B / Fold change vs veh, LARP1B / RFU, RASA1 / Fold change vs veh, RASA1 / RFU, RB1 / Fold change vs veh, RB1 / RFU, PPFIA1 / Fold change vs veh, PPFIA1 / RFU, MAT2A / Fold change vs veh, MAT2A / RFU, CCT5 / Fold change vs veh, CCT5 / RFU, WDR92 / Fold change vs veh, WDR92 / RFU, CUX1 / Fold change vs veh, CUX1 / RFU, TTC7A / Fold change vs veh, TTC7A / RFU, TMEM135 / Fold change vs veh, TMEM135 / RFU, DEPTOR / Fold change vs veh, DEPTOR / RFU, CPM / Fold change vs veh, CPM / RFU, DNAJB6 / Fold change vs veh, DNAJB6 / RFU, CACNA2D3 / Fold change vs veh, CACNA2D3 / RFU, DTX4 / Fold change vs veh, DTX4 / RFU, TFCP2 / Fold change vs veh, TFCP2 / RFU, GMCL1 /// GMCL1P1 / Fold change vs veh, GMCL1 /// GMCL1P1 / RFU, AEBP2 / Fold change vs veh, AEBP2 / RFU, SNHG1 /// SNORD22 /// SNORD25 /// SNORD26 /// SNORD27 /// SNORD28 /// SNORD29 /// SNORD31 / Fold change vs veh, SNHG1 /// SNORD22 /// SNORD25 /// SNORD26 /// SNORD27 /// SNORD28 /// SNORD29 /// SNORD31 / Fold change (Aza/veh), C12orf56 (ProbeSet 11735607_a_at) / Fold change (ACY-1035/veh), C12orf56 (ProbeSet 11735607_a_at) / Fold change (Aza/veh), FGFR1OP (ProbeSet 11751329_s_at) / Fold change (ACY-1035/veh), FGFR1OP (ProbeSet 11751329_s_at) / Fold change (Aza/veh), VPS36 (ProbeSet 11739960_a_at) / Fold change (ACY-1035/veh), VPS36 (ProbeSet 11739960_a_at) / RFU SYPL1 (11715823_x_at) / Fold change /veh SYPL1 (11715823_x_at) / RFU IGFBP7 (11715501_s_at) / Fold change /veh IGFBP7 (11715501_s_at) / RFU REEP3 (11722064_at) / Fold change /veh REEP3 (11722064_at) / RFU IGLL1 (11728026_x_at) / Fold change /veh IGLL1 (11728026_x_at): dose or concentration left out as unconfirmed
Conditions: MV-4-11 cells, 48 hours

Nc1ncn([C@@H]2O[C@H](CO)[C@@H](O)[C@H]2O)c(=O)n1 [azacitidine]
RFU GSTM3 (11746129_a_at): 15.07 RFU

— PMC5218480 (PLoS ONE, 2017)
